Measurements as given in patent US5747482A, “Methods and compositions to inhibit keratinocyte proliferation” (priority 1996, dated 1998).
Where two headings read alike, the source gives them in different places.

How the values were obtained:
keratinocyte cells [1] = assay type: cell-based, human; conditions: for induction of apoptosis: 24 hours treatment
Excerpt: (§1) Adult human keratinocytes from pooled donor skin were obtained from commercial sources (Cascade Biologics, Portland, Oreg., U.S.A.) and placed in 150 cm^2 bottom area culture flasks using culture medium 154 supplemented with HKGS (about 1%). At 80% confluency, cells were harvested with trypsin and cryopreserved until required.
The induction of apoptosis is a critical feature in the programmed cell death as it relates to disease conditions such as cancer, psoriasis, etc. where the uncontrolled proliferation of "immortal" cells such as keratinocytes is a causative feature of the disease. This example compares the ability of gallium maltol to induce apoptosis as compared to negative control (no gallium maltol), and positive control (CAM--an agent known to strongly induce apoptosis). The ability for gallium maltol to effect apoptosis was also measured by the inhibitory effect of ATA.
Specifically, keratinocyte cells were grown using medium 154 in 24 well plates seed with 2,500 cells/cm^2 as described above. Cultures were continued for 3 or 6 days when the cells had achieved about 20 or 60% confluence respectively. On these 2 occasions, media were aspirated from groups of 3 or 4 wells and replaced with high Ca^+2 medium either without supplement or with one of the following supplements:
1. Gallium maltol at a final concentration of one of the following: (a) 5×10^-4 M, (b) 1×10^-4 M, (c) 5×10^-5 M, (d) 1×10^-5 M, and (e) 1×10^-6 M;
4. As in (3) plus CAM at 1×10^-5 or 1×10^-6 M; and
5. As in (3) plus gallium maltol at 1×10^-4 or 2.5×10^-4 M;
(§2) Culture was renewed for a further 24 hours. At this time, media were removed and discarded, and the cells lysed with 200 μL/well of the solution provided in the Cell Death Detection Kit ELISA Plus (Boehringer Mannheim Biochemicals, Indianapolis, Ind., U.S.A., catalogue number 1774425). Aliquots of the lysate (20 μL) from each of 2 or 3 wells were assayed for nucleosomal enrichment following the kit instructions.

[2] = oral; cited from earlier work
Keratinocytes = experiment: Comparison of keratinocyte growth inhibition by gallium maltol, gallium nitrate and maltol, Example 3; assay type: cell-based, human; conditions: gallium nitrate 1×10^-4 M; maltol 3×10^-4 M; 9 days, high Ca^+2 medium; FIG. 3
Excerpt: as §1
At the start of the experiments, the required number of vials of keratinocytes was thawed, and the keratinocytes were placed in culture in 24 well plates at about 2,500 cells/cm^2 using the same culture medium as described above. After 24 hours (to allow attachment), the medium was changed to fresh 154 supplemented with HKGS (about 1%) and gallium maltol. Specifically, the fresh medium was prepared by addition of a sufficient amount of a stock solution to provide for six different compositions having a final gallium concentration of 10^-4 M, 10^-5 M, 10^-6 M, 10^-8 M, 10^-10 M, and 10^-12 M. The stock solution was prepared by adding 22.25 mg of gallium maltol to 50 mL of 154 medium and then passing the solution through a 0.2 μm filter and storing at 4° C.
When control cells were about 40% confluent (generally at 4-5 days in culture, all media were removed by aspiration, keratinocyte growth was assayed by crystal violet staining and conversion to cell numbers as described by Wilkinson, et al.^11. Specifically, cell layers rinsed in PBS, which was also aspirated, and 4 drops of crystal violet solution added to each well. The crystal violet solution was prepared by dissolving crystal violet (Fisher Scientific) in PBS:formaldehyde:ethanol (67:3:30%) to give a 0.5 w/v solution. A blank 24-well plate was treated similarly.
Keratinocytes were cultured in 24-well plates for 9 days in the manner described above in Example 2. […]
The cells were then cultured and subsequently evaluated for inhibition of keratinocyte proliferation in the manner described above.

keratinocyte cells [3] = assay type: cell-based, human; conditions: gallium nitrate 5×10^-4 M; maltol 15×10^-4 M; 2 days treatment, 1.2 mM Ca^+2; FIG. 7
Procedure: as §1, §2
The evaluation of apoptosis of keratinocytes was conducted to determine the relative affect on apoptosis achieved by gallium maltol, gallium nitrate and maltol. Specifically, keratinocyte cells were seeded in 12 well plates seed using culture medium 154. Cultures were continued for 4 days and the medium was changed to medium 154 with 1.2 mM Ca^+2 either without supplement or with one of the following supplements:
1. gallium maltol at a final concentration of 5×10^-4 M;
2. gallium nitrate at a final concentration of 5×10^-4 M;
3. maltol at a concentration of 15×10^-4 M; and
4. CAM at a concentration of 1×10^-5 M.
Three (3) wells were used in each group. The final amount of medium was 300 μL in each well. Culture was continued for 2 days. Bars represent absorbance at 405 nm minus the absorbance at 492 nm.

O=C(O)C1=CC(=C(c2ccc(O)c(C(=O)O)c2)c2ccc(O)c(C(=O)O)c2)C=CC1=O [ATA, aurin tricarboxylic acid, reference compound]
reduction of CAM-induced apoptosis (keratinocyte cells [1]; 1×10^-4 M ATA + 1×10^-5 M CAM, cultured 3 days prior, FIG. 5): reduced by half | reduction of CAM-induced apoptosis (keratinocyte cells [1]; 1×10^-4 M ATA + 1×10^-6 M CAM, cultured 6 days prior, FIG. 6): reduced by half

CC[C@@]1(O)C(=O)OCc2c1cc1n(c2=O)Cc2cc3ccccc3nc2-1 [CAM, camptothecin, reference compound]
induction of apoptosis (keratinocyte cells [1]; 1×10^-5 M, cultured 3 days prior, FIG. 5): strongly induced apoptosis | induction of apoptosis (keratinocyte cells [1]; 1×10^-6 M, cultured 6 days prior, FIG. 6): strongly induced apoptosis

CCc1occc(=O)c1O [ethyl maltol, 3-hydroxy-2-ethyl-4-pyrone]
toxicity when taken orally [2]: very low toxicities when taken orally

O=[N+]([O-])[O-].O=[N+]([O-])[O-].O=[N+]([O-])[O-].[Ga+3] [gallium nitrate]
effect on keratinocyte proliferation (Keratinocytes): neither gallium nitrate nor maltol had any effect on keratinocyte proliferation | effect on apoptosis (keratinocyte cells [3]): no significant effect on apoptosis

Cc1occc(=O)c1O [maltol, 3-hydroxy-2-methyl-4-pyrone]
effect on keratinocyte proliferation (Keratinocytes): neither gallium nitrate nor maltol had any effect on keratinocyte proliferation | effect on apoptosis (keratinocyte cells [3]): no significant effect on apoptosis | toxicity when taken orally [2]: very low toxicities when taken orally
